# Assay results reported in patent publication US8133984B2, “Oligonucleotides comprising signalling pairs and hydrophobic nucleotides, stemless beacons, for detection of nucleic acids, methylation status and mutants of nucleic acids” (PENTABASE ApS, priority 2006, dated 2012).
# Entries after “also recorded” stand apart in the source; their conditions may differ. {FAM} = fluorescein (FAM) fluorophore label; {BHQ1} = Black Hole Quencher 1
# How the values were obtained:
# Assay type in all cases: binding
# Bgal_WT_tar oligo target = test: Affinity of stemless probes to single stranded oligo target (melt 25-90° C.); conditions: for Signal (25° C.): fluorescence at 25° C., hybridised to oligo target; for Signal (25° C.) / Signal (90° C.): 280 mM NaCl, 20 mM Na2HPO4 buffer; for Signal (90° C.): fluorescence at 90° C.
# Excerpt: This example illustrates how stemless beacons comprising hydrophobic modifications of the structure: X—Y-Q where X is a backbone monomer unit linked to the oligo by phosphordiester bonds and of the structure —O—CH2—CH2—O—, Y is a —CH2—O—CH2— linker and Q is 1′-pyrene, will have higher affinity towards a fully complementary target sequence than a probe not comprising said hydrophobic modifications.
# It can be seen from FIG. 13 that all stemless beacons have the similar or higher affinity for the complementary oligo nucleotide target compared to the corresponding DNA. Furthermore it can be calculated that all of the stemless beacons presented in this example (exclusive probe—1) have a similar or higher signal-to-noise ratio than the DNA probe without hydrophobic modifications (signal at 25 degrees divided by signal at 90 degrees).
# matched DNA target = test: Melting temperature experiment (dissociation curve) of probe hybridised to matched DNA target; conditions: for difference between hybridisation temperature to matched and mismatched target: FIG. 3, matched versus mismatched target; for temperature at which the probe hybridises to its matched target: FIG. 3, negative derivative of dissociation curve, 4 mM MgCl2, 50 mM KCl, 10 mM TRIS-HCl, pH=8.0
# Description: (§1) The measurement was done as a melting temperature experiment on a Mx3000, Stratagene Real-time PCR instrument in a 96-well plate. The measurements were done in a buffer solution reflecting the buffer solutions used in a normal Real-time PCR reaction. The buffer contained 4 mM MgCl2, 50 mM KCl, 10 mM TRIS-HCl, pH=8.0. 1 μL of the Stemless Beacon (5 pmol/μL) and 2 μL of the DNA target sequence (5 pmol/μL) and 22 μL of the buffer mentioned above. First the mixtures were heated to 95° C. for 1 min to denature the secondary structures followed by annealing of the duplexes at 35° C. and ramping up to 95° C. while measuring the signal for every degrees change. Results are shown in FIG. 2, and other details like the sequences of the Stemless Beacons can be seen in the legend to said Figure.
# (§2) The Measurements were carried out as described in example 2 above. Result and sequence information can be found in FIG. 3 and in the legend to said figure. The results are shown as the first derivative of the signal against temperature.
# mismatched DNA target = test: Melting temperature experiment (dissociation curve) of probe hybridised to mismatched DNA target; conditions: for temperature at which the probe hybridises to its mismatched target: FIG. 3, negative derivative of dissociation curve, 4 mM MgCl2, 50 mM KCl, 10 mM TRIS-HCl, pH=8.0
# Description: as §1, §2
# [1] = system: nucleotide 2074 of human Andrenogen receptor, wild type (THP cDNA) and A→G mutant (LNCap cDNA); test: Real-time PCR SNP detection, fluorescence read at 55, 61 and 65° C.
# Description: (§3) A test was setup to see if the used combination of probes would be able to distinguish between the wildtype and the A→G transition mutant. Measurements in this example were carried out on the Real-time PCR machine Rotorgene™ 3000 from Corbett Research.
# (§4) In this experiment the mut. specific probe was added together with wt. specific probe in a homogenous assay. The label 1 means the inserted pseudonucleotide or hydrophobic nucleotide (Phosphoramidite of (S)-1-(4,4′-dimethoxytriphenylmethyloxy)-3-pyrenemethyloxy-2-propanol) comprising the hydrophobic, intercalating molecule pyrene (with the number XII from the description above). The label 2 means the inserted pseudonucleotide or hydrophobic nucleotide (Phosphoramidite of 3-(1-O-(4,4′-dimethoxytriphenylmethyl)-2-O-(2-cyanoethyl diisopropylamidophosphite)-1,2-butandiol)-4-N-(7,9-Dimethyl-3H-pyrido[3′,2′:4,5]thieno[3,2-d]pyrimidin-4-one)) (comprising the intercalating hydrophobic group with the number XXVI from the description above). FAM and Hex are fluorophores and BHQ1 is a quencher.
# (§5) The template: 2 samples of each with cDNA extracted from either LNCap (mutant) and/or THP (wt) (6 samples overall).
# (§6) The Real-Time PCR profile used is depicted in FIG. 14B.
# [2] = system: nucleotide 2074 of human Andrenogen receptor, wild type (THP cDNA) and A→G mutant (LNCap cDNA); test: End-point affinity measurements on FAM and HEX channel, SNP detection
# Description: as §3, §4, §5, §6
# [3] = Example 2, FIG. 2, methylated/unmethylated bisulphite treated DNA target
substance,measurement,setting,value
5′-Fam A1C CGA CCC AGC GCC 1C BHQ1-3′ [Probe _2],Signal (25° C.),Bgal_WT_tar oligo target,34.12
same,Signal (90° C.),Bgal_WT_tar oligo target,4.7
5′-Fam ACC G1A CCC AGC 1GC CC BHQ1-3′ [Probe _5],Signal (25° C.),Bgal_WT_tar oligo target,50.57
same,Signal (90° C.),Bgal_WT_tar oligo target,7.81
5′-Fam ACC GA1 CCC AG1 CGC CC BHQ1-3′ [Probe _6],Signal (25° C.),Bgal_WT_tar oligo target,77.01
same,Signal (90° C.),Bgal_WT_tar oligo target,12.85
5′-Fam ACC GAC 1CC A1G CGC CC BHQ1-3′ [Probe _7],Signal (25° C.),Bgal_WT_tar oligo target,46.92
same,Signal (90° C.),Bgal_WT_tar oligo target,7.98
"5′-Fam ACC GAC CCA GCG CCC BHQ1-3′ (DNA ACCGACCCAGCGCCC; reference probe without hydrophobic nucleotides, sugar not given here, further chemistry not given here) [Probe _ref (DNA), DNA probe without hydrophobic modifications, reference compound]",Signal (25° C.),Bgal_WT_tar oligo target,38.11
same,Signal (90° C.),Bgal_WT_tar oligo target,8.65
same,Signal-to-noise,Bgal_WT_tar oligo target; signal at 25 degrees divided by signal at 90 degrees,4.41
"FAM-A2AAA2ATCCCG2CGA2ACT-BHQ1 (DNA ANAAANATCCCGNCGANACT; FAM, BHQ1, 4 hydrophobic pseudonucleotide insertions, chemistry not fully specified) [Stemless Beacon]",melting temperature of the probe against the fully matched target,matched DNA target; [3],67 °C
same,background fluorescence (fluorescence of unbound probe) compared to the Stemless DNA probe,"matched DNA target; FIG. 2, 35 to 95° C.",significantly reduced background fluorescence; also recorded: much lower
same,melting temperature of the probe against the mismatched target,mismatched DNA target; [3],56 °C
"FAM-ATTTTAGGGCGTTTTTTTG-BHQ1 (DNA, 5' {FAM}, 3' {BHQ1}, backbone not given here) [reference compound]",difference between hybridisation temperature to matched and mismatched target,matched DNA target,7.8 °C
same,temperature at which the probe hybridises to its matched target,matched DNA target,64.9 °C
same,temperature at which the probe hybridises to its mismatched target,mismatched DNA target,57.1 °C
"FAM-T1CAAA1AGTGA1ACTG1AT-BHQ1 (DNA TNCAAANAGTGANACTGNAT; DNA probe with hydrophobic pseudonucleotide insertions denoted 1, structure not given here, further chemistry not given here) [wt specific probe, wild type specific probe; 1 = pyrene pseudonucleotide]",binding of probe in real-time PCR,[1]; at 55° C.,binds to both the wild type target and the mutant
same,binding of probe in real-time PCR,[1]; at 61° C.,only a specific signal from wt probe is obtained
same,binding of probe in real-time PCR,[1]; at 65° C.,only binding to its specific target
same,width of window of specific hybridisation,[2]; FAM channel,approximately 5 degree
"FAM-T2AGG2GCGT2TTTT2T-BHQ1 (DNA TNAGGNGCGTNTTTTNT; FAM, BHQ1, intercalating pseudonucleotide insertions, further chemistry not given here) [SB, 2 = inserted pseudonucleotide comprising intercalating hydrophobic group XXVI]",difference between hybridisation temperature to matched and mismatched target,matched DNA target,13.8 °C
same,temperature at which the probe hybridises to its matched target,matched DNA target,63.7 °C
same,specificity higher than Stemless DNA probe having the same affinity,matched DNA target; measured as difference in affinity to a matched versus a mismatched target,77%
same,temperature at which the probe hybridises to its mismatched target,mismatched DNA target,49.9 °C
"HEX-2TCAAA2AGCGA2ACTG2AT-BHQ1 (DNA NTCAAANAGCGANACTGNAT; pseudonucleotide insertions denoted 2, identity not given here, further chemistry not given here) [mut. specific probe, mutant specific probe; 2 = pseudonucleotide with hydrophobic group XXVI]",binding of probe in real-time PCR,[1]; at 55° C.,hybridising specifically to its target
same,binding of probe in real-time PCR,[1]; at 61° C.,worked fine
same,binding of probe in real-time PCR,[1]; at 65° C.,no longer binding
same,width of window distinguishing fully complementary from single nucleotide mismatched target,"[2]; HEX channel, at temperatures above 55° C.",at least 10 °C
